{"source": "patent US10588952B2", "about": "“Conjugate vaccine using trimming function of ERAP1” (SUMITOMO DAINIPPON PHARMA CO., LTD., priority 2013, dated 2020)", "key": {"[1]": {"experiment": "physchem", "description": "To prepare a test solution, about 1 mg of a test product was measured and the isotonic buffer (0.5 mL) was added thereto. The prepared solution was shaken at room temperature for 90 min (shaking conditions: RECIPRO SHAKER SR-1N manufactured by TAITEC, Speed=8), centrifuged (15000 rpm, 5 min, room temperature), and the supernatant after centrifugation was used as a test solution.\nAbout 1 mg of the test product was accurately measured, dissolved in 0.1% TFA water/acetonitrile=1/1, made the total amount 10 mL, and this was used as a standard solution of the test product.\nThe standard solution of the test product and the test solution are analyzed by HPLC (under the analysis conditions described in Table 34), and the solubility of the test product is calculated from the ratio of peak area compared to the standard solution.\ncolumn: Chemcopack Quicksorb (4.6 mmφ×150 mm, 5 μm)\nmanufactured by Chemco Scientific Co., Ltd.\nmobile phase: SOLUTION A; 0.1% TFA water, SOLUTION B;\n0.1% TFA acetonitrile solution\ncolumn temperature: room temperature\ndetection wavelength: UV 254 nm, 230 nm (2 wavelength detection)\nsample injection volume: 10"}, "[2]": {"test_system": "HLA-A0201 transgenic mouse", "experiment": "In vivo CTL induction ability, IFNγ ELISPOT, formula (11) (Experimental Example 13)", "conditions": "250 μg/site with IFA, 17 hr", "procedure": "The compound represented by the formula (11) synthesized in Example 109 was evaluated for the CTL induction ability by an in vivo CTL induction test using an HLA-A0201 transgenic mouse. The compound represented by the formula (11): […]\nTo evaluate whether CTLs to each of the peptides (SEQ ID NOs: 19 and 88) endogenously presented by cancer cells was induced, the compound represented by the formula (11) was administered to the HLA-A0201 transgenic mouse. That is, it was determined whether IFNγ production was observed by re-stimulation, with the peptide (SEQ ID NO: 19 or 88), of the splenocyte derived from the above-mentioned mouse administered with the compound represented by the formula (11).\nSpecifically, the compound represented by the formula (11) was dissolved in dimethyl sulfoxide (DMSO) at 80 mg/mL, further diluted with water for injection to 10 mg/mL, and emulsified by mixing with an equal amount of incomplete Freund's adjuvant (IFA). The emulsified compound was intradermally administered to 2 sites at the base of tail of the mouse at 250 μg/site. One week later, the mouse was euthanized with CO2 gas, the spleen was isolated, and splenocytes were prepared. IFNγ ELISPOT assay kit was used for the measurement of IFNγ production. […] The number of spots that developed color was measured by ImmunoSpot Analyzer (manufactured by C.T.L.). […]"}, "[3]": {"test_system": "HLA-A0201 transgenic mouse", "experiment": "In vivo CTL induction ability, IFNγ ELISPOT, formula (5) (Experimental Example 14)", "conditions": "250 μg/site with IFA, 17 hr", "procedure": "The compound represented by the formula (5) synthesized in Example 110 was evaluated for the CTL induction ability by an in vivo CTL induction test using HLA-A0201 transgenic mouse. The compound represented by the formula (5): […]\nSpecifically, the compound represented by the formula (5) was dissolved in dimethyl sulfoxide (DMSO) at 80 mg/mL, further diluted with water for injection to 10 mg/mL, and emulsified by mixing with an equal amount of incomplete Freund's adjuvant (IFA). The emulsified compound was intradermally administered to 2 sites at the base of tail of the mouse at 250 μg/site. One week later, the mouse was euthanized with CO2 gas, the spleen was isolated, and splenocytes were prepared. IFNγ ELISPOT assay kit was used for the measurement of IFNγ production. On the previous day of splenocyte preparation, an ELISPOT plate was treated with an anti-mouse IFNγ antibody, and blocked with RPMI1640 medium containing 10% FBS the next day. The prepared HLA-A0201 transgenic mouse-derived splenocytes were plated at 0.25×10^6 cells/well on the blocked ELISPOT plate. […] After the culture, the supernatant was removed, and the ELISPOT plate was allowed to develop color according to the attached protocol. The number of spots that developed color was measured by ImmunoSpot Analyzer (manufactured by C.T.L.)."}, "[4]": {"target": "T1, ERAP1 (Homo sapiens, UniProt Q9NZ08)", "T1 sequence (Q9NZ08 whole entry)": "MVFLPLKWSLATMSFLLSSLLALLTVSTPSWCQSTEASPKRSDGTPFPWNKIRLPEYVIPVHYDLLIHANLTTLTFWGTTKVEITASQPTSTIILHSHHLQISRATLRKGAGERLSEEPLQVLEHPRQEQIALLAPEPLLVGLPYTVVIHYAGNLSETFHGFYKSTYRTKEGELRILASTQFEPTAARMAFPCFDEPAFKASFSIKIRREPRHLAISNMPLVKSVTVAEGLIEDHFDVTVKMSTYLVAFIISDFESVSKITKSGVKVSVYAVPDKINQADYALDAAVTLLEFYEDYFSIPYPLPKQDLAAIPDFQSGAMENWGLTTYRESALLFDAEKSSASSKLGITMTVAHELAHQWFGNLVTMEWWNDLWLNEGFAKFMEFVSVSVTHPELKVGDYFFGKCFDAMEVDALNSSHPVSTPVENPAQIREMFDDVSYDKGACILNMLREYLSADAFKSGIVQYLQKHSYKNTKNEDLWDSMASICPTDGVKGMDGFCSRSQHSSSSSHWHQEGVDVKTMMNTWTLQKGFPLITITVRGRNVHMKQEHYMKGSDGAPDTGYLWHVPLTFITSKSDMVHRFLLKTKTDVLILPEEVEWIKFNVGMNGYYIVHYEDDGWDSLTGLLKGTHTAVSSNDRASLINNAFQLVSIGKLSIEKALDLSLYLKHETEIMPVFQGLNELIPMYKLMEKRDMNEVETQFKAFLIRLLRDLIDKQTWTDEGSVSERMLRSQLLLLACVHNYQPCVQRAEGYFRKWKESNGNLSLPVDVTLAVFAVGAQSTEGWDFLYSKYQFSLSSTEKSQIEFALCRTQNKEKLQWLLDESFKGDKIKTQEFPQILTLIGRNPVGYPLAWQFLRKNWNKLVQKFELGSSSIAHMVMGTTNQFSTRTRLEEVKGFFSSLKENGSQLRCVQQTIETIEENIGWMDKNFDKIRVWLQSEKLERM", "experiment": "Time-course changes of trimming of N-terminal amino acid by ERAP1 (Experimental Example 2)", "type": "biochemical", "conditions": "peptide obtained by trimming (SEQ ID NO: 53, 43 or 19), ERAP1 solution 0.5 mg/ml, room temperature", "procedure": "20 μl of ERAP1 solution (0.5 mg/ml) in Tris.HCl buffer was added to 172 μl of Tris.HCl buffer. 10 mM peptide solution in DMSO (8.0 μl) was added to the aforementioned ERAP1 solution, and the mixture was blended well and stood at room temperature. […]\npump: UFLC manufactured by Shimadzu column: Shim-pack XR-ODS 3.0 mmi.d.×75 mm solution: 0.05% TFA H2O(A)-0.05% TFA CH3CN(B) […]\ndetection wavelength: λ=220 nm gradient: Concentration of SOLUTION B was raised from 1.0% 70% from 0.0 min to 5.0 min […]\nThe peptide to be obtained by the trimming of the N-terminal amino acid(s) by ERAP1 is, […]"}, "[5]": {"test_system": "HLA-A0201 transgenic mouse", "experiment": "In vivo CTL induction ability, IFNγ ELISPOT, Cys-extended peptides (Experimental Example 3)", "conditions": "intradermal, 2 sites, 50 μg/site with IFA; splenocytes one week later re-stimulated with Cys non-extended or Cys-extended peptide 10 μg/mL", "description": "The CTL induction ability of each peptide extended by cysteine (Cys) (Cys-extended peptide) shown in Table 23 was evaluated by in vivo CTL induction test using an HLA-A0201 transgenic mouse.\nHLA-A0201 transgenic mouse (C57BL/6CrHLA-A2.1DR1) is a mouse which is defective in mouse MHC, and expresses a chimera HLA of human MHC HLA-A0201 and mouse MHC H-2D^b, and HLA-DRB1*0101.\nThe emulsified peptide was intradermally administered to 2 sites at the base of tail of the mouse at 50 μg/site. One week later, the mouse was euthanized with CO2 gas, the spleen was isolated, and splenocytes were prepared. IFNγ ELISPOT assay kit was used for the measurement of IFNγ production. On the previous day of splenocyte preparation, an ELISPOT plate was treated with an anti-mouse IFNγ antibody, and blocked with RPMI1640 medium containing 10% FBS the next day. The prepared HLA-A0201 transgenic mouse-derived splenocytes were plated at 2.5×10^5 cells/well on the blocked ELISPOT plate. […] These splenocytes were cultivated for 20 hr at 37° C., 5% CO2, whereby peptide re-stimulation in vitro was performed. Thereafter, the supernatant was removed, and the ELISPOT plate was allowed to develop color according to the attached protocol. The number of spots that developed color was measured by KS ELISPOT."}, "[6]": {"target": "T1, ERAP1", "experiment": "Test of trimming of N-terminal amino acid by ERAP1 (Experimental Example 11, Examples 50, 56, 64, 67)", "type": "biochemical", "conditions": "Proteinase-3 169-177 peptide obtained by ERAP1 trimming; from HPLC AUC", "procedure": "The peptides synthesized in Examples 50, 56, 64 and 67 were evaluated for N-terminal amino acid trimming efficiency using ERAP1. 50 μl of ERAP1 solution (10 μg/ml) in pH 8.0, 20 mM Tris.HCl-100 mM NaCl buffer (Tris.HCl buffer) was added to 142 μl of Tris.HCl buffer. 10 mM peptide solution in DMSO (2.0 μl) and 6.0 μL of DMSO were added to the aforementioned ERAP1 solution, and the mixture was blended well and stood at 30° C. […] The peptide to be obtained by trimming was chemically synthesized separately, and analyzed under similar conditions in the absence of the enzyme. […]\npump: UFLC manufactured by Shimadzu […]\nsolution: 0.1% TFA H2O(A)-0.1% TFA CH3CN(B) […]\ndetection wavelength: λ=220 nm gradient: concentration of SOLUTION B was raised from 10% to 50% from 0.0 min to 8.5 min"}, "[7]": {"conditions": "splenocytes pulsed with SEQ ID NO: 19, 10 μg/mL"}}, "note": "Bridge positions count the residues as written; N and C are the ends. Peptide text beside a SMILES is read from it. I, II: the chains in the order shown."}
{"molecule": "CC[C@H](C)[C@H](NC(=O)[C@H](Cc1c[nH]c2ccccc12)NC(=O)[C@H](CCSC)NC(=O)[C@H](CC(C)C)NC(=O)[C@H](CC(C)C)NC(=O)[C@@H](N)CO)C(=O)N[C@H](C(=O)N[C@@H](CCC(N)=O)C(=O)N[C@@H](CSSC[C@H](N)C(=O)NCC(=O)N[C@@H](CC(C)C)C(=O)N[C@@H](Cc1ccc(O)cc1)C(=O)N[C@@H](CC(=O)O)C(=O)NCC(=O)N[C@@H](CCSC)C(=O)N[C@@H](CCC(=O)O)C(=O)N[C@@H](Cc1c[nH]cn1)C(=O)N[C@@H](CC(C)C)C(=O)O)C(=O)O)[C@@H](C)O", "note": "[Example 109]", "values": [{"measurement": "solubility at 90 min", "setting": "[1]; pH 6", "value": 79, "unit": "µg/mL"}, {"measurement": "solubility at 90 min", "setting": "[1]; pH 7.4", "value": 700, "unit": "µg/mL"}, {"measurement": "induction of CTLs specific to the peptide shown by SEQ ID NO: 19", "setting": "[2]; [7]", "value": "can induce CTLs"}, {"measurement": "induction of CTLs specific to the peptide shown by SEQ ID NO: 88", "setting": "[2]; splenocytes pulsed with SEQ ID NO: 88, 10 μg/mL", "value": "can induce CTLs"}]}
{"molecule": "CSCC[C@H](NC(=O)CNC(=O)[C@H](CC(=O)O)NC(=O)[C@H](Cc1ccc(O)cc1)NC(=O)[C@H](CC(C)C)NC(=O)CNC(=O)[C@@H](N)CSSC[C@H](N)C(=O)N[C@H](C(=O)N[C@@H](CC(C)C)C(=O)N[C@@H](CCC(N)=O)C(=O)N[C@@H](CCC(=O)O)C(=O)N[C@@H](CC(C)C)C(=O)N[C@@H](CC(N)=O)C(=O)N[C@H](C(=O)N[C@H](C(=O)N[C@H](C(=O)O)C(C)C)[C@@H](C)O)C(C)C)C(C)C)C(=O)N[C@@H](CCC(=O)O)C(=O)N[C@@H](Cc1c[nH]cn1)C(=O)N[C@@H](CC(C)C)C(=O)O", "note": "[Example 110] (I: H-CGLYDGMEHL-OH / II: H-CVLQELNVTV-OH; disulfide I:1-II:1)", "values": [{"measurement": "solubility thermodynamic at 90 min", "setting": "[1]; pH 6", "value": 511, "unit": "µg/mL"}, {"measurement": "solubility thermodynamic at 90 min", "setting": "[1]; pH 7.4", "value": "> 1000", "unit": "µg/mL"}, {"measurement": "induction of CTLs specific to the peptide shown by SEQ ID NO: 19", "setting": "[3]; [7]", "value": "can induce CTLs"}, {"measurement": "induction of CTLs specific to the peptide shown by SEQ ID NO: 43", "setting": "[3]; splenocytes pulsed with SEQ ID NO: 43, 10 μg/mL", "value": "can induce CTLs"}]}
{"molecule": "H-CGLYDGMEHL-OH [Example 25]", "values": [{"measurement": "formation rate(%) 1 hr later", "setting": "[4]", "value": 95.1, "unit": "%"}, {"measurement": "formation rate(%) 2 hr later", "setting": "[4]", "value": 106, "unit": "%"}, {"measurement": "formation rate(%) 4 hr later", "setting": "[4]", "value": 100, "unit": "%"}, {"measurement": "formation rate(%) 8 hr later", "setting": "[4]", "value": 101, "unit": "%"}, {"measurement": "in vivo CTL induction ability (IFNγ ELISPOT)", "setting": "[5]", "value": "has an in vivo CTL induction ability"}]}
{"molecule": "H-CVLQELNVTV-OH [Example 21]", "values": [{"measurement": "formation rate(%) 1 hr later", "setting": "[4]", "value": 83.4, "unit": "%"}, {"measurement": "formation rate(%) 2 hr later", "setting": "[4]", "value": 85.6, "unit": "%"}, {"measurement": "formation rate(%) 4 hr later", "setting": "[4]", "value": 78.8, "unit": "%"}, {"measurement": "formation rate(%) 8 hr later", "setting": "[4]", "value": 83.9, "unit": "%"}, {"measurement": "in vivo CTL induction ability (IFNγ ELISPOT)", "setting": "[5]", "value": "has an in vivo CTL induction ability"}]}
{"molecule": "H-GCVLQELNVTV-OH [Example 56]", "values": [{"measurement": "formation rate of VLQELNVTV (SEQ ID NO: 43)", "setting": "[6]", "value": 1.1, "unit": "%"}]}
{"molecule": "H-SCVLQELNVTV-OH [Example 64]", "values": [{"measurement": "formation rate of VLQELNVTV (SEQ ID NO: 43)", "setting": "[6]", "value": 1.3, "unit": "%"}]}
{"molecule": "H-YCVLQELNVTV-OH [Example 67]", "values": [{"measurement": "formation rate of VLQELNVTV (SEQ ID NO: 43)", "setting": "[6]", "value": 0.7, "unit": "%"}]}
